Measured values as given in patent US8193238B2, “Inhibition of microtubule protrusion in cancer cells” (University of Maryland, Baltimore, priority 2006, dated 2012).
“Also recorded” adds a separate entry of the source.

Key:
Assay type in all cases: cell-based, mouse
Glu-tubulin = assay: Western blotting of modified tubulin isoforms in attached or suspended cells; settings: for cellular levels of Glu-tubulin: EpH4-Bcl2, attached or detached, LA 5 μM
Protocol: EpH4-Bcl2 cells were grown attached to tissue culture dishes or suspended over agarose for the indicated times in either the absence or presence of LA (5 μM). In FIG. 5A, cell lysates were immunoblotted to detect levels of modified tubulin isoforms in the cell populations. In FIG. 5B, modified α-tubulin isoforms were normalized to total α-tubulin and then compared relative to the levels in attached cells at time zero. Bars represent the mean+S.E.M. of four independent experiments. […] Differences in Glu-tubulin upon detachment were also statistically-significant when compared to matched controls at time zero or one hour (black asterisks).
Whole cell lysates were prepared from EpH4 cells that were scraped or suspended in the presence or absence of 5 μM Latrunculin-A. Cells were pelleted at 3000 rpm×5 min and resuspended in lysis buffer (2% SDS, 100 mM Tris-HCl (pH 6.8), 20% Glycerol, 20 mM DTT, 1 mM phenylmethylsulfonyl fluoride, 1% protease inhibitor cocktail (Sigma, P2714)), and then immediately boiled for 10 min. Protein concentration was measured using a Lowry based assay (Bio-Rad, Hercules, Calif.). The amount of 17.5 μg of protein from each sample was separated by SDS-PAGE on 10% polyacrylamide gels and then transferred to Immuno-Blot PVDF membranes (Bio-Rad, Hercules, Calif.). The membrane was blocked in 2% milk in TBS with 0.1% Tween for 1 hr at room temperature followed by an overnight incubation at 4° C. in monoclonal α-tubulin (1:1000), tyrosinated tubulin (1:1000), acetylated tubulin (1:1000), and polyclonal detyrosinated tubulin (1:1000) in 1% milk in TBST. Secondary antibodies to IgG conjugated to horseradish peroxidase were used (1:5000; GE Healthcare, Piscataway, N.J.) and visualized using ECL chemiluminescent detection kit.
Immediately following detachment, levels of Glu-tubulin increase and remain elevated for at least 2 hours. […] The increased length and number of protrusions in response to LA may therefore reflect a decrease in an actin-dependent counteracting force, rather than a direct induction of protrusions.

EpH4-Bcl2 cells [1] = assay: Cell-cell attachment assay; settings: EpH4-Bcl2 in 0.3% methylcellulose over agarose, 5 hours; listed as LA
Protocol: (§1) In FIG. 6A, EpH4-Bcl2 cells were suspended over agarose and treated with inhibitors as above. Following treatment, cells were plated into 0.3% methylcellulose media over agarose and the rate of cell-cell attachment was followed by Hoescht DNA staining. […] Similar results were found in three independent experiments. In FIG. 6B, EpH4-Bcl2 cells suspended over agarose for one hour in DMEM or DMEM containing LA (5 μM), Colchicine (1 μM), or the combination. Reattachment of these cells to either uncoated tissue culture plates or those pre-coated with laminin was followed by XTT cell viability assay. Values represent mean+S.D. of raw XTT values of three separate experiments.
B19 cells were seeded onto 10 cm dishes until 80% confluency. The media was aspirated and cells were incubated in fresh growth media containing Hoescht 33342 (1:5000) for 30 min at 37° C. to label all attached cells. The cells were washed twice in PBS, detached by trypsinization, and an equivalent number of cells were resuspended in serum-free media containing 0.3% methylcellulose with either 5 μM Latrunculin A, 100 μM Colchicine, 1 μg/ml vinblastine, or 5 μg/ml nocodazole and plated over 2% agarose-coated 24-well plates. The progression of cell-cell adhesion over time was visualized by the EpiChemi3 Imaging System (UVP, Inc.; Upland, Calif.) using an excitation wavelength of 365 nm and a blue band pass filter. Images were obtained with an attached Hamamatsu CCD camera (Hamamatsu Photonics, Hamamatsu City, Japan) and analyzed with UVP Labworks Image Acquisition and Analysis Software v. 4.6.
(§2) To determine if these microtubule protrusions influence the ability of cells to form attachments, the cells were treated with inhibitors of actin or tubulin polymerization and assessed both cell-cell and cell-substratum attachment (FIG. 6). […] Induction of such nonspecific attachment activity in detached mammary epithelial cells could promote tumor cell dissemination, particularly when apoptotic resistance allows this response to continue for extended periods.

EpH4-Bcl2 cells [2] = assay: Cell-substratum attachment assay
Protocol: as §1
Equivalent numbers of B19 cells were suspended over 6-well plates coated in 2% agarose in serum-free media containing 5 μM Latrunculin-A (LA; BioMol, Plymouth Meeting, Pa.), 100 μM colchicine (Col; Sigma, St. Louis, Mo.), 5 μg/ml nocodazole (Noc), or 1 μg/ml vinblastine (VinB; Sigma) for a duration of 1 hr at 37° C. Cells were collected by centrifugation (1000 rpm×5 min) and drug containing media was aspirated. Cells were resuspended in EpH4 serum-containing growth media and aliquoted out into 24 wells (8 timepoints×3 replicates) of a 96-well clear bottom black plate. After plating, cells were allowed to attach for duration of 15 min, 45 min, 1.5 hr, 2 hr, 3 hr, 4 hr, 5 hr, and 24 hr at which point the media was aspirated from the replicate wells, washed twice in PBS, and fresh growth media was replaced at each timepoint. After 24 hr, all wells were aspirated and cells were incubated in growth media containing Hoescht 33342 (1:5000) for 30 min at 37° C. to label all attached cells. Fluorescence was measured using a Biotek Synergy HT Multi-Detection Microplate Reader (Winooski, Vt.) at excitation wavelength 360 nm and an emission filter of 460 nm followed by subsequent analysis using the KC4 Data Analysis software. The percentage of cell attachment for each treatment exposure was calculated as the RFU at each timepoint divided by the RFU at 24 h (maximum attachment). The standard deviations of triplicates at each timepoint are shown.
as §2

`C/C1=C/C(=O)O[C@@H]2C[C@@H](CC[C@H](C)/C=C\C=C\CC1)O[C@@](O)([C@@H]1CSC(=O)N1)C2` [Latrunculin-A] was tested, and the “total cellular levels of α-tubulin, tyrosinated or acetylated tubulin” value (Glu-tubulin; EpH4-Bcl2, LA treatment) was “remain unaffected”, the “cellular levels of Glu-tubulin” value (Glu-tubulin) was “did not increase” and the “cellular levels of Glu-tubulin” value (Glu-tubulin; listed as LA) was “not specifically increased; also recorded: does not significantly increase cellular levels of Glu-tubulin”. For the same compound, the “cell-cell attachment (clustering)” value (EpH4-Bcl2 cells [1]) was “did speed the rate at which cells bound to each other; also recorded: cluster similarly or even more tightly compared to control cells”, the “attachment of cells to tissue culture surfaces” value (EpH4-Bcl2 cells [2]; EpH4-Bcl2 (B19), 1 hr in suspension with inhibitor, then replated) was “did not significantly affect attachment” and the “cell-surface attachment to uncoated or laminin-coated plates (XTT)” value (EpH4-Bcl2 cells [2]; EpH4-Bcl2 suspended one hour, LA 5 μM, Colchicine 1 μM) was “does not affect cell-surface attachment”.
